{"source": "patent US20250099548A1", "about": "“PHARMACEUTICAL COMPOSITION FOR PREVENTING OR TREATING DEGENERATIVE BRAIN DISEASES, CONTAINING GLUCAGON-LIKE PEPTIDE-1 AND INTERLEUKIN-1 RECEPTOR ANTAGONIST” (GI INNOVATION, INC., priority 2022, published 2025)", "assay_type_in_all_cases": "in vivo, mouse", "key": {"[1]": {"system": "Tg-APP/PS1 mice", "assay": "DCX immunochemical staining of hippocampal DG region", "conditions": "Example 1; GI210B1 1.2 mg/kg intraperitoneal, 4 times for 2 weeks", "description": "DCX (doublecortin) is continuously expressed during the 2-3 weeks during which immature neurons mature, and is expressed in […]. For this reason, DCX is used as a marker of neurogenesis, indicating the degree of neuronal differentiation and after the metaphase of newly generated neurons.\nIn order to confirm the effect of GI210B1 on the decreased neurogenesis in the DG (dentate gyrus) region of the hippocampus of Tg mice, the Tg-APP/PS1 mice administered with GI210B1 (Tg+GI210B1), the wild type mice (WT) as a normal group, and the Tg-APP/PS1 mice (Tg or Tg+Veh) as a control group were sacrificed, and then the brain tissue was extracted, and the DG region of the hippocampus was stained with DCX.\nIn the same manner as in Example 1.4.2 above, the mice from each group were sacrificed, and then the brain tissue was extracted, and the DG region of the hippocampus was stained with DCX."}, "[2]": {"system": "Tg-APP/PS1 mice", "assay": "MAP-2 immunofluorescence staining of hippocampal CA1 region", "conditions": "4 times for 2 weeks", "description": "Long-term memory is regulated at synapses between axons of neurons and dendrites of target neurons, and the microstructure of neurons is greatly influenced by the state of neuron health. Changes in the microstructure of dendrites of neurons are important for maintaining memory. The microstructure of the dendrites of such neurons can be observed as an image by staining with an anti-MAP-2 antibody (GeneTex, CatNo. GTX133109) located in the dendrites.\nTherefore, in order to determine the mechanism of action of cognitive function improvement and memory recovery effects of GI210B1, the Tg-APP/PS1 mice administered with GI210B1 (Tg+GI210B1), the wild type mice (WT) as a normal group, and the Tg-APP/PS1 mice (Tg or Tg+Veh) as a control group were sacrificed, and then the brain tissue was extracted, and the microstructural status of the dendrites (dendritic process) of the hippocampus was analyzed.\nIn the same manner as in Example 1.4.1 above, the mice from each group were sacrificed, and then the brain tissue was extracted, and the microstructural status of the dendrites of the hippocampus was analyzed."}, "[3]": {"system": "Tg-APP/PS1 mice", "assay": "Water maze test", "conditions": "Example 1", "description": "(§1) The test substance was prepared by diluting GI210B1 obtained in Preparation Example 1 in saline, and it was intraperitoneally administered to 6.5-month-old Tg-APP/PS1 mice at a concentration of 1.2 mg/kg a total of 4 times for 2 weeks (FIG. 10).\n(§2) In the Tg-APP/PS1 mice intraperitoneally administered with GI210B1 at 6.5 months of age in Example 1.1 above, behavioral characteristics of cognitive function were evaluated at 7.5 to 8.0 months of age. In order to evaluate the behavioral characteristics of cognitive function, a novel object recognition test (NOR test), a passive avoidance test, and a water maze test were performed. At that time, the three experiments for behavioral evaluation were performed according to a method known in the art.\nThe water maze test is a cognitive behavior evaluation experiment conducted to measure spatial perception learning ability and memory dependent on the hippocampus area of the brain. […]\nIn addition, a hidden platform test was conducted on the 6th day. The hidden platform of the water maze was removed, and then the mouse was placed in the water maze and the location the mouse stayed for 60 seconds was recorded. At that time, the time and location that the mouse stayed in the four quadrants of the water maze for 60 seconds in the absence of a hidden platform were recorded. […]"}, "[4]": {"system": "Tg-APP/PS1 mice", "assay": "Novel object recognition test", "conditions": "Example 1, 1.2 mg/kg intraperitoneal, 4 times for 2 weeks from 6.5 months of age", "description": "as §1, §2\nAll behavior evaluations were recorded with a computerized video-tracking system (SMART; Panlab S. I., Barcelona, Spain) and a webcam recording system (HD Webcam C210, Logitech, Newark, CA, USA). At that time, the background sound in the test room was set to 65 dB of white noise, and all behavioral tests were performed during the photoperiod (9 a.m. to 3 p.m.).\nSpecifically, the mice prepared in Example 1.1 above were repeatedly exposed to two objects of the same shape twice at intervals of 10 minutes in an open field (familiarization). […] In addition, two hours after the habituation of the mice was completed, the mice were exposed to a novel object and an old object, and then the time taken for the mouse to recognize each object was measured [2-hour-NOR (novel object recognition) experiment]. Thereafter, the mice returned to their home cage, and then the location of one of the just-exposed objects was moved, and then object distinguishment and recognition time were measured [2-hour-NLR (novel position recognition) experiment]. Thereafter, 24 hours after the habituation of the mice was completed, the mice were exposed to another object and an old object, and then the time taken for the mouse to approach each object was measured (24-hour-NOR experiment). […]"}}, "data": [{"substance": "GI210B1: fusion protein dimer comprising GLP-1 (SEQ ID NO: 2), IgG4 Fc domain and IL-1Ra; SEQ ID NO: 10", "values": [{"measurement": "number of DCX positive cells in the DG region of the hippocampus", "setting": "[1]", "result": "increased compared to the control group (Tg), and was recovered to a level similar to that of the normal group (WT)"}, {"measurement": "expression level of MAP-2 in the CA1 region of the hippocampus", "setting": "[2]; Example 1, GI210B1 1.2 mg/kg intraperitoneal", "result": "recovered to the level of the normal group (WT)"}, {"measurement": "expression level of MAP-2 in the CA1 region of the hippocampus", "setting": "[2]; Example 2, GI210B1, GI210B1C1, GI210B1CN at 1.2, 0.7778, 1.1745 mg/kg intraperitoneal", "result": "higher than that of the control group (Tg+Veh)"}, {"measurement": "time in target quadrant, hidden platform test", "setting": "[3]; 6th day, platform removed, 60 seconds", "result": "recognized for a longer time compared to the control group (Tg+Veh)"}, {"measurement": "time taken for the mouse to learn and find the location of the hidden platform (spatial perception training)", "setting": "[3]; training twice a day for 5 days, 1.2 mg/kg intraperitoneal, 4 times for 2 weeks", "result": "somewhat slower than that of the normal group, but faster than that of the control group (Tg+Veh)"}, {"measurement": "recognition of a novel object, 24-hour-NOR experiment", "setting": "[4]", "result": "recognized a novel object for a longer time at a similar level to the normal group (WT)"}, {"measurement": "time taken for the mouse to recognize an object whose location was changed, 2-hour-NLR experiment", "setting": "[4]", "result": "increased similar to the normal group"}, {"measurement": "time taken for the mouse to recognize a novel object, 2-hour-NOR experiment", "setting": "[4]; tested at 7.5 to 8.0 months", "result": "increased similar to the normal group (WT)"}]}]}
